Measurements published in patent publication US11590139B2, “Substituted aminopurine compounds, compositions thereof, and methods of treatment therewith” (Signal Pharmaceuticals, LLC, priority 2014, dated 2023).

Tested on: Lox-IMVI melanoma cell line
Assay: Lox-IMVI anti-proliferative assay (growth inhibition, Cell Titer-Glo)
Assay type: cell-based, human
Details: Homo sapiens; Lox-IMVI anti-proliferative assay, IC50 activity level; read-out: Activity
Summary of the method: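 Viability read by ATP luminescence (Cell Titer-Glo) at t0 and after 72 h at 37 °C, 5% CO2, with normalisation to DMSO-treated cells. Compound tested at 0.5 nM–10 μM in 3-fold, 10-point series (0.2% DMSO final) on Lox-IMVI in RPMI+10% FBS; IC50 by 4-parameter sigmoidal fit.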

Row | Compound | IC50
1 | C[C@H]1COCC[C@@H]1Nc1ncc2nc(Nc3c(F)cc(F)cc3F)n([C@H]3CC[C@@H](C(N)=O)CC3)c2n1 [Example 510, (1R,4s)-4-(2-((3R,4S)-3-methyltetrahydro-2H-pyran-4-ylamino)-8-(2,4,6-trifluorophenylamino)-9H-purin-9-yl)cyclohexanecarboxamide] | > 1000 nM
2 | C[C@@H]1COCC[C@@H]1Nc1ncc2nc(Nc3c(F)cc(F)cc3F)n([C@H]3CC[C@@H](C(N)=O)CC3)c2n1 [Example 511, (1R,4s)-4-(2-((3S,4S)-3-methyltetrahydro-2H-pyran-4-ylamino)-8-(2,4,6-trifluorophenylamino)-9H-purin-9-yl)cyclohexanecarboxamide] | 500 to 1000 nM
3 | NC(=O)[C@H]1CC[C@@H](n2c(Nc3c(F)cc(F)cc3F)nc3cnc(N[C@H]4CCCC[C@H]4O)nc32)CC1 [Example 512, (1R,4s)-4-(2-((1S,2R)-2-hydroxycyclohexylamino)-8-(2,4,6-trifluorophenylamino)-9H-purin-9-yl)cyclohexanecarboxamide] | > 1000 nM
4 | NC(=O)[C@H]1CC[C@@H](n2c(Nc3c(F)cc(Cl)cc3Cl)nc3cnc(N[C@H]4CCCC[C@H]4O)nc32)CC1 [Example 513, (1R,4s)-4-(8-(2,4-dichloro-6-fluorophenylamino)-2-((1S,2R)-2-hydroxycyclohexylamino)-9H-purin-9-yl)cyclohexanecarboxamide] | > 1000 nM
5 | NC(=O)[C@H]1CC[C@@H](n2c(Nc3c(Cl)cc(Cl)cc3Cl)nc3cnc(N[C@H]4CCCC[C@H]4O)nc32)CC1 [Example 514, (1R,4s)-4-(2-((1S,2R)-2-hydroxycyclohexylamino)-8-(2,4,6-trichlorophenylamino)-9H-purin-9-yl)cyclohexanecarboxamide] | > 1000 nM
6 | NC(=O)[C@H]1CC[C@@H](n2c(Nc3c(F)cc(Cl)cc3F)nc3cnc(N[C@H]4CCCC[C@H]4O)nc32)CC1 [Example 515, (1R,4s)-4-(8-(4-chloro-2,6-difluorophenylamino)-2-((1S,2R)-2-hydroxycyclohexylamino)-9H-purin-9-yl)cyclohexanecarboxamide] | > 1000 nM
7 | NC(=O)[C@H]1CC[C@@H](n2c(Nc3c(Cl)cc(F)cc3Cl)nc3cnc(N[C@H]4CCCC[C@H]4O)nc32)CC1 [Example 516, (1R,4s)-4-(8-(2,6-dichloro-4-fluorophenylamino)-2-((1S,2R)-2-hydroxycyclohexylamino)-9H-purin-9-yl)cyclohexanecarboxamide] | > 1000 nM
8 | N#Cc1cc(F)c(Nc2nc3cnc(N[C@H]4CCCC[C@H]4O)nc3n2[C@H]2CC[C@@H](C(N)=O)CC2)c(Cl)c1 [Example 517, (1R,4s)-4-(8-(2-chloro-4-cyano-6-fluorophenylamino)-2-((1S,2R)-2-hydroxycyclohexylamino)-9H-purin-9-yl)cyclohexanecarboxamide] | > 1000 nM
9 | N#Cc1cc(Cl)c(Nc2nc3cnc(N[C@@H]4CCOC4)nc3n2[C@H]2CC[C@@H](C(N)=O)CC2)c(Cl)c1 [Example 518, (1S,4s)-4-(8-(2,6-dichloro-4-cyanophenylamino)-2-((R)-tetrahydrofuran-3-ylamino)-9H-purin-9-yl)cyclohexanecarboxamide] | 250 to 500 nM
10 | N#Cc1cc(Cl)c(Nc2nc3cnc(N[C@H]4CCCC[C@H]4O)nc3n2[C@H]2CC[C@@H](C(N)=O)CC2)c(Cl)c1 [Example 519, (1R,4s)-4-(8-(2,6-dichloro-4-cyanophenylamino)-2-((1S,2R)-2-hydroxycyclohexylamino)-9H-purin-9-yl)cyclohexanecarboxamide] | > 1000 nM
11 | N#Cc1cc(F)c(Nc2nc3cnc(N[C@@H]4CCOC4)nc3n2[C@H]2CC[C@@H](C(N)=O)CC2)c(Cl)c1 [Example 520, (1S,4s)-4-(8-(2-chloro-4-cyano-6-fluorophenylamino)-2-((R)-tetrahydrofuran-3-ylamino)-9H-purin-9-yl)cyclohexanecarboxamide] | 250 to 500 nM
12 | C[C@]1(C(N)=O)CC[C@@H](n2c(Nc3c(F)cc(Cl)cc3F)nc3cnc(NC4CCOCC4)nc32)CC1 [Example 521, (1s,4s)-4-(8-(4-chloro-2,6-difluorophenylamino)-2-(tetrahydro-2H-pyran-4-ylamino)-9H-purin-9-yl)-1-methylcyclohexanecarboxamide] | < 250 nM
13 | C[C@]1(C(N)=O)CC[C@@H](n2c(Nc3c(Cl)cc(Cl)cc3Cl)nc3cnc(NC4CCOCC4)nc32)CC1 [Example 522, (1s,4s)-1-methyl-4-(2-(tetrahydro-2H-pyran-4-ylamino)-8-(2,4,6-trichlorophenylamino)-9H-purin-9-yl)cyclohexanecarboxamide] | < 250 nM
14 | NC(=O)[C@H]1CC[C@@H](n2c(Nc3c(Cl)cc(C(F)(F)F)cc3Cl)nc3cnc(N[C@@H]4CCOC4)nc32)CC1 [Example 523, (1S,4s)-4-(8-(2,6-dichloro-4-(trifluoromethyl)phenylamino)-2-((R)-tetrahydrofuran-3-ylamino)-9H-purin-9-yl)cyclohexanecarboxamide] | > 1000 nM
15 | C[C@]1(C(N)=O)CC[C@@H](n2c(Nc3c(F)cc(C#N)cc3F)nc3cnc(NC4CCOCC4)nc32)CC1 [Example 524, (1s,4s)-4-(8-(4-cyano-2,6-difluorophenylamino)-2-(tetrahydro-2H-pyran-4-ylamino)-9H-purin-9-yl)-1-methylcyclohexanecarboxamide] | < 250 nM
16 | C[C@]1(C(N)=O)CC[C@@H](n2c(Nc3c(F)cc(C#N)cc3Cl)nc3cnc(NC4CCOCC4)nc32)CC1 [Example 525, (1s,4s)-4-(8-(2-chloro-4-cyano-6-fluorophenylamino)-2-(tetrahydro-2H-pyran-4-ylamino)-9H-purin-9-yl)-1-methylcyclohexanecarboxamide] | < 250 nM
17 | C[C@]1(C(N)=O)CC[C@@H](n2c(Nc3c(Cl)cc(F)cc3Cl)nc3cnc(NC4CCC(F)(F)CC4)nc32)CC1 [Example 526, (1s,4s)-4-(8-(2,6-dichloro-4-fluorophenylamino)-2-(4,4-difluorocyclohexylamino)-9H-purin-9-yl)-1-methylcyclohexanecarboxamide] | < 250 nM
18 | C[C@]1(C(N)=O)CC[C@@H](n2c(Nc3c(F)cc(F)cc3Cl)nc3cnc(NC4CCC(F)(F)CC4)nc32)CC1 [Example 527, (1s,4s)-4-(8-(2-chloro-4,6-difluorophenylamino)-2-(4,4-difluorocyclohexylamino)-9H-purin-9-yl)-1-methylcyclohexanecarboxamide] | < 250 nM
19 | C[C@]1(C(N)=O)CC[C@@H](n2c(Nc3c(F)cc(Cl)cc3Cl)nc3cnc(NC4CCC(F)(F)CC4)nc32)CC1 [Example 528, (1s,4s)-4-(8-(2,4-dichloro-6-fluorophenylamino)-2-(4,4-difluorocyclohexylamino)-9H-purin-9-yl)-1-methylcyclohexanecarboxamide] | < 250 nM
20 | N#Cc1cc(F)c(Nc2nc3cnc(N[C@@H]4CCOC4)nc3n2[C@H]2CC[C@@H](C(N)=O)CC2)c(F)c1 [Example 529, (1S,4s)-4-(8-(4-cyano-2,6-difluorophenylamino)-2-((R)-tetrahydrofuran-3-ylamino)-9H-purin-9-yl)cyclohexanecarboxamide] | > 1000 nM
21 | NC(=O)[C@H]1CC[C@@H](n2c(Nc3c(F)cc(F)cc3F)nc3cnc(N[C@@H]4CCOC4)nc32)CC1 [Example 530, (1S,4s)-4-(2-((R)-tetrahydrofuran-3-ylamino)-8-(2,4,6-trifluorophenylamino)-9H-purin-9-yl)cyclohexanecarboxamide] | 500 to 1000 nM
22 | CC(CN1CCOCC1)Nc1ncc2nc(Nc3c(Cl)cc(Cl)cc3Cl)n([C@H]3CC[C@@H](C(N)=O)CC3)c2n1 (some centres unmarked) [Example 531, (1s,4s)-4-(2-(1-morpholinopropan-2-ylamino)-8-(2,4,6-trichlorophenylamino)-9H-purin-9-yl)cyclohexanecarboxamide] | > 1000 nM
23 | C[C@@H]1COCC[C@H]1Nc1ncc2nc(Nc3c(F)cc(Cl)cc3F)n([C@H]3CC[C@@H](C(N)=O)CC3)c2n1 [Example 532, (1S,4s)-4-(8-(4-chloro-2,6-difluorophenylamino)-2-((3S,4R)-3-methyltetrahydro-2H-pyran-4-ylamino)-9H-purin-9-yl)cyclohexanecarboxamide] | 250 to 500 nM
24 | C[C@@H]1COCC[C@H]1Nc1ncc2nc(Nc3c(F)cc(F)cc3F)n([C@H]3CC[C@@H](C(N)=O)CC3)c2n1 [Example 533, (1S,4s)-4-(2-((3S,4R)-3-methyltetrahydro-2H-pyran-4-ylamino)-8-(2,4,6-trifluorophenylamino)-9H-purin-9-yl)cyclohexanecarboxamide] | < 250 nM
25 | C[C@]1(C(N)=O)CC[C@@H](n2c(Nc3c(Cl)cc(C#N)cc3Cl)nc3cnc(NC4CCC(F)(F)CC4)nc32)CC1 [Example 534, (1s,4s)-4-(8-(2,6-dichloro-4-cyanophenylamino)-2-(4,4-difluorocyclohexylamino)-9H-purin-9-yl)-1-methylcyclohexanecarboxamide] | < 250 nM
26 | C[C@]1(C(N)=O)CC[C@@H](n2c(Nc3c(Cl)cc(C#N)cc3Cl)nc3cnc(NC4CCOCC4)nc32)CC1 [Example 535, (1s,4s)-4-(8-(2,6-dichloro-4-cyanophenylamino)-2-(tetrahydro-2H-pyran-4-ylamino)-9H-purin-9-yl)-1-methylcyclohexanecarboxamide] | < 250 nM
27 | NC(=O)[C@H]1CC[C@@H](n2c(Nc3c(F)cc(F)cc3F)nc3cnc(NC4CCCOCC4)nc32)CC1 (some centres unmarked) [Example 536, (1s,4s)-4-(2-(oxepan-4-ylamino)-8-(2,4,6-trifluorophenylamino)-9H-purin-9-yl)cyclohexanecarboxamide] | 500 to 1000 nM
28 | NC(=O)[C@H]1CC[C@@H](n2c(Nc3c(F)cc(Cl)cc3Cl)nc3cnc(NC4CCCOCC4)nc32)CC1 (some centres unmarked) [Example 537, (1s,4s)-4-(8-(2,4-dichloro-6-fluorophenylamino)-2-(oxepan-4-ylamino)-9H-purin-9-yl)cyclohexanecarboxamide] | < 250 nM
29 | NC(=O)[C@H]1CC[C@@H](n2c(Nc3c(F)cc(F)cc3Cl)nc3cnc(NC4CCCOCC4)nc32)CC1 (some centres unmarked) [Example 538, (1s,4s)-4-(8-(2-chloro-4,6-difluorophenylamino)-2-(oxepan-4-ylamino)-9H-purin-9-yl)cyclohexanecarboxamide] | 250 to 500 nM
